These results are taken from patent publication US9204653B2, “5-fluoro pyrimidine derivatives” (DOW AGROSCIENCES LLC, priority 2008, dated 2015).

A word on the pest or weed control: it is the degree to which the test organism was suppressed or injured, in per cent.

The test system of the experiment is Mycosphaerella graminicola; Anamorph: Septoria tritici; Bayer Code SEPTTR. Description: Leaf blotch of wheat, foliar fungicide treatment, one day protectant (1DP) or three day curative (3DC). In kind it is in vivo, Septoria tritici on wheat plants (variety Yuma). As to conditions: Zymoseptoria tritici, 24 h, % disease control rating, one day protectant.

`C=CCOc1ncc(F)c(NCc2ccccc2F)n1` [Compound 917] returned a pest or weed control at 50 ppm of 0 to 25% and a pest or weed control at 200 ppm of 51 to 75%.
The matching figures for `Fc1ccccc1CNc1nc(OCc2ccc(Cl)cc2)ncc1F` [Compound 918]: 76 to 100% and 76 to 100%.
Turning to `Fc1cnc(OCc2ccc3c(c2)OCO3)nc1NC1CC1` [Compound 919], the pest or weed control at 200 ppm was in the range of 76 to 100%.
The compound `Cc1ccc(CNc2nc(OCc3ccc(Cl)cc3)ncc2F)cc1` [Compound 920] returned a pest or weed control at 50 ppm of 76 to 100% and a pest or weed control at 200 ppm of 76 to 100%.
Compound `Fc1ccc(COc2ncc(F)c(NCc3ccccc3F)n2)c(F)c1` [Compound 921] gave a pest or weed control at 50 ppm of 76 to 100% and a pest or weed control at 200 ppm of 76 to 100%.
`Cc1ccc(CNc2nc(OCc3cccs3)ncc2F)cc1` [Compound 922]: the pest or weed control at 50 ppm was in the range of 51 to 75% and the pest or weed control at 200 ppm lay in the range of 26 to 50%.
In the case of `Fc1ccc(COc2ncc(F)c(NCc3cccs3)n2)c(F)c1` [Compound 923], the pest or weed control at 200 ppm lay in the range of 76 to 100%.
In turn, `Fc1ccccc1CNc1nc(OCc2cccc(Cl)c2)ncc1F` [Compound 924] returned a pest or weed control at 50 ppm of 76 to 100% and a pest or weed control at 200 ppm of 76 to 100%.
In turn, `Fc1cnc(OCc2ccc(Cl)cc2)nc1N1CCOCC1` [Compound 925] gave a pest or weed control at 50 ppm of 0 to 25% and a pest or weed control at 200 ppm of 0 to 25%.
As to `Cc1ccc(COc2ncc(F)c(NCCc3ccccc3)n2)cc1` [Compound 926], the pest or weed control at 50 ppm lay in the range of 76 to 100% and the pest or weed control at 200 ppm is 76 to 100%.
With `Fc1ccc(COc2ncc(F)c(NC3CC3)n2)cc1` [Compound 927], the pest or weed control at 50 ppm lay within 51 to 75% and the pest or weed control at 200 ppm lay within 76 to 100%.
Turning to `Fc1ccccc1CNc1nc(OCc2ccc3c(c2)OCO3)ncc1F` [Compound 928], the pest or weed control at 50 ppm was in the range of 76 to 100% and the pest or weed control at 200 ppm is 76 to 100%.
`COc1ccc(COc2ncc(F)c(NCc3ccc(Cl)cc3)n2)cc1` [Compound 929] displayed a pest or weed control at 50 ppm of 51 to 75% and a pest or weed control at 200 ppm of 76 to 100%.
The matching figures for `Cc1ccc(COc2ncc(F)c(NCc3ccccc3F)n2)cc1` [Compound 930]: 0 to 25% and 76 to 100%.
Compound `COc1cccc(COc2ncc(F)c(NCc3cccs3)n2)c1` [Compound 931] had a pest or weed control at 200 ppm of 76 to 100%.
`C=CCOc1ncc(F)c(N)n1` [Compound 932] returned a pest or weed control at 50 ppm of 76 to 100% and a pest or weed control at 200 ppm of 76 to 100%.
Turning to `Cc1cnc(CNc2nc(OCCc3ccccc3)ncc2F)cn1` [Compound 934], the pest or weed control at 50 ppm fell in the range of 0 to 25% and the pest or weed control at 200 ppm lay in the range of 26 to 50%.
Turning to `Fc1cnc(OCc2ccccn2)nc1NCc1ccc(Cl)cc1` [Compound 935], the pest or weed control at 50 ppm lay within 26 to 50% and the pest or weed control at 200 ppm lay within 76 to 100%.
The like results for `Nc1nc(OCCc2ccccc2)ncc1F` [Compound 936] were, in that order, 76 to 100% and 76 to 100%.
The like results for `Fc1cnc(OCc2cccs2)nc1NCCc1ccccc1` [Compound 937] were, in that order, 76 to 100% and 76 to 100%.
In turn, `Fc1ccc(COc2ncc(F)c(NC3CC3)n2)cc1F` [Compound 938] came in with a pest or weed control at 200 ppm of 76 to 100%.
As for `Cc1cc(COc2ncc(F)c(N)n2)no1` [Compound 939], the pest or weed control at 50 ppm was 0 to 25% and the pest or weed control at 200 ppm lay in the range of 76 to 100%.
With `Fc1cnc(OCCc2ccccc2)nc1NC1CC1` [Compound 940], the pest or weed control at 50 ppm was in the range of 0 to 25% and the pest or weed control at 200 ppm lay in the range of 0 to 25%.
The compound `Fc1cnc(OCc2ccc(Cl)cc2Cl)nc1NCc1ccc(Cl)cc1` [Compound 942] displayed a pest or weed control at 50 ppm of 76 to 100% and a pest or weed control at 200 ppm of 76 to 100%.
Take `Fc1ccccc1CNc1nc(OCc2c(Cl)cccc2Cl)ncc1F` [Compound 943]: the pest or weed control at 50 ppm lay in the range of 51 to 75% and the pest or weed control at 200 ppm lay within 76 to 100%.
